“And” between values parts separate entries of the source, which are not always exact repeats. Equal values may be shown once. Read-outs that look alike come from different tables or passages of the source.
Columns and labels:
rat = settings: oral (rat); cited from earlier work
[1] = cited from earlier work
[2] = hazardous ingredient of the product; cited from earlier work
[3] = Task 1A: surface adherence of contaminants on pipe materials, 7 days at 20-25° C.; format: physicochemical; settings: comparison of Tasks 1A, 1B, 1C
[4] = product as supplied; cited from earlier work
[5] = Task 2: efficacy of decontamination agents (extraction and subsequent rinses); settings: for Aqueous concentration of mercury, Extraction: extractant hypochlorite (300 mg/L), mercury input 19530.00 mg/L, adhered 7 days, 20-25° C.
Excerpt: The pipe materials used for subtask 2 were DIE, DIW, PVC and copper. […] Types of interactions included scrubbing, flushing, recirculation, shaking and static equilibrium.
After equilibration, the contaminant was extracted using the various decontamination agents. […] Surfactant molecules have both hydrophilic and hydrophobic parts, and the most attractive place for them in water is at the surface where the forces of both attraction and repulsion to water can be satisfied. […] The aqueous solutions of these decontaminants were prepared using the available chemical decontaminants and diluting them to required concentration by adding DI water. Appropriate volume corrections were conducted for NaOCl considering available solution concentration of NaOCl received from the supplier.
(§1) The sample was introduced via a peristaltic pump by pneumatic nebulization into radio frequency plasma where energy transfer processes cause desolvation, atomization, and ionization. The ions were extracted from the plasma through a pumped vacuum interface and separated on the basis of their mass-to-charge ratio by a quadrupole mass spectrometer. The ions transmitted through the quadrupole were registered by a continuous dynode electron multiplier and the ion information was processed by a data handling system.

[6] = Task 1: removal of adhered chemicals by three de-ionized water rinses and extractant; settings: for Aqueous concentration of mercury, Extraction: adherence at 4-6° C.; for Aqueous concentration, Extractant: after 24 hours; for Aqueous concentration, Extractant / Aqueous concentration of mercury, Extractant: 20-25° C.; for Aqueous concentration of mercury, Extractant: after 7 days, initial 22829.8 mg/L, extractant = chemical decontaminant of the present disclosure
Protocol: In Task 1, the pipes were rinsed immediately after the equilibrated solution was transferred into the analytical sample vials. Thereafter, de-ionized water at room temperature was used for rinsing the pipes. Three consecutive rinses were conducted using de-ionized water at room temperature. In case of aged black iron pipe, the aqueous solution was centrifuged before transferring to the sample vials to avoid entrainment of colloidal corroded iron particles in the solution. During the extraction step, the pipes were about half filled with the extraction solution and wrapped tightly. The 4″ diameter pipes were filled with 150 mL of extraction solution. The copper, PVC, and HDPE pipes were filled with 55 mL of extraction solution, while the epoxy and the aged metal pipes were filled with 85 mL of extraction solution. […] After shaking for 1 hour, the pipes were flipped in order to get contact with the entire inner surface of the pipe. The extraction solutions were transferred to the appropriate sample vial.
as §1
In this table, m0 and mi are the initial and final amounts of chemical in water.
Water rinse was done to remove the weakly-bound chemicals, while the strongly-bound chemicals, if any, were extracted with stronger solvents.

Molecule: COP(=O)(OC)O/C(C)=C/C(=O)N(C)C [Dicrotophos]
- LD50 (rat): Oral LD50 for rats is 16- 21 mg/kg.
- time after which decomposed ([1]; at 75° C.): 31 days
- time after which decomposed ([1]; at 90° C.): 7 days
- storage stability ([1]; stored in glass or polythene containers up to 40° C.): stable

Molecule: CCCCOCCO [Butyl cellosolve]
- PEL [2]: 25 mg/L
- TLV [2]: 25 mg/L

Molecule: O=C(O)CF [fluoroacetate]
- Adhesion coefficients under 7 days and room temperature condition versus 24 hours or low temperature conditions [3]: generally higher

Molecule: COP(=O)(OC)OC=C(Cl)Cl [Dichlorvos]
- LD50 (rat): LD50 oral (rat) 56 to 80 mg/kg
- Hydrolysis ([1]; at pH 4): slow
- Hydrolysis ([1]; at pH 9): rapid
- Half-life ([1]; between pH 4 and pH 9): 20 to 80 h

Molecule: OCl [Sodium Hypochlorite, Sodium hypochlorite]
- pH [4]: ~13
- Aqueous concentration of mercury, Extraction ([5]; COP (copper) pipe, listed as Hypochlorite): 11.01 mg/L and 8.48 mg/L
- Aqueous concentration of mercury, Extraction ([5]; COP (copper) pipe, listed as hypochlorite): 8.5 mg/L and 11 mg/L
- Aqueous concentration of mercury, Extraction ([5]; DIE pipe): 133.91 mg/L and 136.16 mg/L
- Aqueous concentration of mercury, Extraction ([5]; DIW pipe, listed as Hypochlorite): 251.05 mg/L and 315.47 mg/L
- Aqueous concentration of mercury, Extraction ([5]; DIW pipe, listed as hypochlorite): 251 mg/L and 315 mg/L
- Aqueous concentration of mercury, Extraction ([5]; PVC pipe): 290.19 mg/L and 172.41 mg/L
- effectiveness in releasing / removing adhered mercury ([5]; mercury adhered on DIW and copper pipes): not effective
- removal / recovery of contaminants compared with the other decontaminants tested ([5]; mercury and organophosphates, solid surfaces): significantly less

Molecule: Mercuric chloride [Mercury]
- Aqueous concentration of mercury, Extraction ([6]; Copper pipe, Mercury #1, initial 7737.5 mg/L): 515.7 mg/L and 272.8 mg/L
- Aqueous concentration, Extractant ([6]; Copper pipe, Mercury #1, initial 8171.5 mg/L): 702.4 mg/L and 559.3 mg/L
- Aqueous concentration, Extractant ([6]; Copper pipe, Mercury #2, initial 23950.0 mg/L): 1820.0 mg/L and 2140.0 mg/L
- Aqueous concentration of mercury, Extraction ([6]; Copper pipe, Mercury #2, initial 28800.0 mg/L): 2930.0 mg/L and 2800.0 mg/L
- Aqueous concentration of mercury, Extractant ([6]; Copper pipe): 7368.1 mg/L and 6413.5 mg/L
- Aqueous concentration of mercury, Extractant ([6]; DIE pipe): 187.6 mg/L and 179.1 mg/L
- Aqueous concentration of mercury, Extractant ([6]; DIO pipe): 9532.2 mg/L and 7156.1 mg/L
- Aqueous concentration, Extractant ([6]; DIW pipe, Mercury #1, initial 8171.5 mg/L): 684.6 mg/L and 914.1 mg/L
- Aqueous concentration of mercury, Extraction ([6]; DIW pipe, Mercury #2, initial 28800.0 mg/L): 1520.0 mg/L and 2290.0 mg/L
- Aqueous concentration of mercury, Extractant ([6]; HDPE pipe): 0.3 mg/L and 0.5 mg/L
- Aqueous concentration of mercury, Extraction ([6]; PVC pipe, Mercury #1, initial 7737.5 mg/L): 1.6 mg/L and 2.6 mg/L

— US20150344822A1, “Decontaminant and Process for Decontamination of Chemicals from Infrastructural Materials” (priority 2014, published 2015)
